# Measured values published in publication PMC6934184, “Selective DNA-PKcs inhibition extends the therapeutic index of localized radiotherapy and chemotherapy” (The Journal of Clinical Investigation, 2019).
# Target: T1, TYRO3 (RSE) (Homo sapiens, UniProt Q06418)
# T1 construct: purchased Thermo Fisher Scientific (Life Technologies) SelectScreen
# Test: SelectScreen Z'LYTE
# Format: biochemical
# In short: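 Percent values come from Thermo SelectScreen profiling of NU5455, combining activity and binding assays. CSF1R was run in Z'LYTE format at Km app ATP, and CAMK1 in Adapta format with ATP listed at 10.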
# T1 sequence (Q06418 41-890): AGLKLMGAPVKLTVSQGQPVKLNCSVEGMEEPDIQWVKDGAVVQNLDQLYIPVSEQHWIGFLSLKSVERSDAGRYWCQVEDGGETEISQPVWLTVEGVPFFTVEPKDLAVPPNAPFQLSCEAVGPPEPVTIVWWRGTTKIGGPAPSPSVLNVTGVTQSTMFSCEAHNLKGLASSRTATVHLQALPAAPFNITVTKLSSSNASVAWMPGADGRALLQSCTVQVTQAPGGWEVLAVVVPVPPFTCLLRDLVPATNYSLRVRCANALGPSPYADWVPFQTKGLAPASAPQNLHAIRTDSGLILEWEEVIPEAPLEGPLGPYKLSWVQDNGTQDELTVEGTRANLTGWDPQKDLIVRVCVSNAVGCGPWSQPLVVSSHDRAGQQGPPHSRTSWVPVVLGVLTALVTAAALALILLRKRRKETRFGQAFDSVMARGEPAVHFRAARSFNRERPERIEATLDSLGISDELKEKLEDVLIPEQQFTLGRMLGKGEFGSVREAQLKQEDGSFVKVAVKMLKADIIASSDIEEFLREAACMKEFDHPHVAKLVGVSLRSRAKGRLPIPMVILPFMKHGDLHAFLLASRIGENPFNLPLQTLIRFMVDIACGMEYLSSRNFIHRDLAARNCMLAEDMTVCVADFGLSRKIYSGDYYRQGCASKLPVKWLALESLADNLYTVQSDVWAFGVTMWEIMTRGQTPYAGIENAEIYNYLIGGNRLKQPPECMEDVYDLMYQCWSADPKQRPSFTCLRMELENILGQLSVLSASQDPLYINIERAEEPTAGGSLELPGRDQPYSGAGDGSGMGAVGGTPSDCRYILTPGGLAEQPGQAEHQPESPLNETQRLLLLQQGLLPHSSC
compound,measurement,value
CN(C(=O)CN1CCOCC1)c1ccc2sc3c(-c4cccc5c(=O)cc(N6CC7CCC(C6)O7)oc45)cccc3c2c1 [NU5455],inhibition at 1 µM,-5.1%
